Legend:
STAT3 = assay: Western blot of pSTAT3 and STAT3; type: cell-based, human; conditions: tofacitinib 1 μM, 24 hours; GBM12 and GBM6
Description: Mayo PDX cells were serum starved overnight. Following treatment for specific time, cells were harvested and lysed. The human glioblastoma tissues were ground in liquid nitrogen and then were lysed. […] TGFα antibody was from R&D system.
. . . […] A similar experiment was performed in GBM6 (FIG. 18F). […] The Western blot images are representative of three independent biological replicates. Actin served as loading control. Data are represented as mean±SEM from three independent experiments. *P<0.05, **P<0.01, ***P<0.001, unpaired two-tailed t-test.

[1] = tested on: U251MG and U87MG cell lines; assay: Matrigel invasion assay in established GBM lines; type: cell-based, human; conditions: for cell invasion: EGF 50 ng/ml
Description: Invasion status of cells was tested with Matrigel Boyden chamber assays (Fisher). 1×10^5 cells were plated on BD BioCoat Matrigel invasion chambers. 24 hours after treatment with drugs, invaded cells were stained with the HEMA-3 kit (Fisher). Invaded cells were counted in 4-5 random fields.
Referring to FIG. 6A-E, EGF inhibits EGFR overexpression induced cell invasion. […] Tetracycline induced EGFR overexpression was confirmed by Western blotting (FIG. 6E). The Western blot images are representative of three independent biological replicates. Actin served as loading control. Data are represented as mean±SEM from three independent experiments. **P<0.01, ***P<0.001, n.s. not significant, unpaired two-tailed t-test.

[2] = tested on: GBM12 mouse intracranial tumors; assay: Exogenous EGF infusion into GBM12 intracranial tumors; type: in vivo, mice; conditions: EGF infused into lateral ventricles by miniosmotic pump
Description: 4 to 6 weeks old female athymic nude mice were purchased from Charles River Laboratories. Mayo PDXs were injected into the right corpus striatum of the brains of 6-8 week-old nude mice using a stereotactic frame. […] Kaplan-Maier survival curves were calculated using GraphPad Prism 7.0 software. Alzet Osmotic pumps were installed for brain delivery of EGF or vehicle in tumor bearing mice. To monitor the mice with orthotropic xenografts, MRI was performed at the Mouse MRI Core, Advanced Imaging Research Center, at UT Southwestern.
Next, the impact of EGFR ligand on GBM invasion was examined in an orthotopic mouse model. To induce ligand activation of EGFR in vivo, ligand to EGFR-expressing tumors were provided by generating an autocrine loop or by exogenous infusion of ligand. In the autocrine loop experiment, ligand for EGFRwt is provided by the same cells that express the EGFR. Autocrine loops involving EGFR and its ligands are well described in GBM (Ramnarain et al. (2006) Cancer Res. 66: 867-874; Tang et al. (1997) J. Neurooncol. 35: 303-314). […]
Western blot analysis of TGFα, pEGFR, EGFR, and BIN3 in PDXs stably transfected with empty (GBM12V, GBM6V, GBM22V) or TGFα expressing vector (GBM12TGFα, GBM6TGFα, GBM22TGFα) is shown in FIG. 12A. […] Quantitative analysis of HNA positive cells in mouse tumor tissue sections. […]

glioma cells = conditions: Ramnarain et al. 2006, cited from earlier work

C[C@@H]1CCN(C(=O)CC#N)C[C@@H]1N(C)c1ncnc2[nH]ccc12 [tofacitinib]
phosphorylation of STAT3 (STAT3): blocks phosphorylation

EGF: Recombinant human EGF (AF-100) from Peprotech; EGFR ligand
cell invasion ([1]; EGFR overexpressed in U87MG and U251MG): decreased invasion | cell invasion ([1]; U251MG and U87MG with low endogenous EGFR): increased invasiveness | invasion increased by inducible EGFRwt expression ([1]; tetracycline induced EGFR overexpressing U251MG cells, plus EGF): abolished | tumor size (MRI) [2]: smaller tumors | tumor invasiveness ([2]; H&E, SMI-31, HNA staining): noninvasive | BIN3 gene upregulation when EGF is added (glioma cells; EGFR overexpressing glioma cells): 19.2 fold | EGR1 gene induction with ligand-activated EGFR signaling (glioma cells): 13.68 fold
